“Also recorded” adds a separate entry of the source. Read-outs that look alike come from different tables or passages of the source.
Tests used:
[1] = system: ICAM-1 (Intercellular cell adhesion molecule-1); test: Cell-ELISA for measurement of LPS-induced ICAM-1 expression on endothelial cells; type: cell-based; details: LPS (1 μg/ml) 16 hrs, human endothelial cells, read-out: ICAM-1 inhibition IC50
Description: (§1) Primary endothelial cells were isolated from human umbilical cord using mild trypsinization (Kumar, S., Arya, P., Mukherjee, C., Singh, B. K., Singh, N., Parmar, V. S., Prasad, A. K., Ghosh, B. Novel Aromatic Ester from Piper longum and Its Analogues Inhibit Expression of Cell Adhesion Molecules on Endothelial Cells. Biochemistry. 2005, 44, 15944-15952). The cells were grown in M199 medium (Sigma, USA) supplemented with 15% heat inactivated fetal calf serum (Biological Industries, Israel), 2 mM L-glutamine (Sigma, USA), 100 units/ml penicillin (Sigma, USA), 100 μg/ml streptomycin (Sigma, USA), 0.25 μg/ml amphotericin B (Sigma, USA), endothelial cell growth factor (50 μg/ml) (Sigma, USA). At confluence, the cells were subcultured using 0.05% trypsin-0.01 M EDTA solution and were used between passages three to four.
Cell-ELISA was used for measuring the expression of ICAM-1 on surface of endothelial cells (Kumar S et al, 2005) Endothelial cells were incubated with or without the test compounds at desired concentrations for the required period, followed by treatment with LPS (1 μg/ml) (BD, USA) for 16 hrs for ICAM-1 expression. The cells were fixed with 1.0% glutaraldehyde (Sigma, USA). Non-specific binding of antibody was blocked by using skimmed milk (3.0% in PBS). Cells were incubated overnight at 4° C. with anti-ICAM-1 mAb (BD, USA), diluted in blocking buffer, the cells were further washed with PBS and incubated with peroxidase-conjugated goat anti-mouse secondary antibody (Sigma, USA). After washings, cells were exposed to the peroxidase substrate (o-phenylenediamine dihydrochloride 40 mg/100 ml in citrate phosphate buffer, pH 4.5). Reaction was stopped by the addition of 2 N sulfuric acid and absorbance at 490 nm was measured using microplate reader (Spectramax 190, Molecular Devices, USA).

[2] = system: adhesion of neutrophils onto human umbilical vein endothelial cells (HUVECs); test: Neutrophil adhesion assay on LPS-induced endothelial cells (static conditions); type: cell-based; details: LPS (1 μg/ml) 6 hrs; for IC50: HUVEC, read-out: Neutrophil Adhesion Inhibition IC50
Description: as §1
Neutrophils were isolated from peripheral blood of healthy individuals (Kumar S et al, 2005). Blood was collected in heparin solution (20 U/ml) and erythrocytes were removed by sedimentation against 6% dextran solution. Plasma, rich in white blood cells, was layered over Ficoll-Hypaque solution (Sigma, USA), followed by centrifugation (300 g for 20 min, 20° C.). The top saline layer and the Ficoll-Hypaque layer were aspirated leaving neutrophils/RBC pellet. The residual red blood cells were removed by hypotonic lysis. Isolated cells were washed with PBS and resuspended in PBS containing 5 mM glucose, 1 mM CaCl2, and 1 mM MgCl2 at a final concentration of 6×10^5 cells/ml.
Neutrophil adhesion assay was performed under static conditions as described previously (Kumar S et al, 2005). Briefly, endothelial cells plated in 96-well culture plates were incubated with or without RS—Z at desired concentrations for 2 hrs, followed by induction with LPS (1 μg/ml) for 6 hrs. Endothelial monolayers were washed with PBS and neutrophils (6×10^4/well) were added over it and were allowed to adhere for 1 hr at 37° C. The non-adherent neutrophils were washed with PBS and neutrophils bound to endothelial cells were assayed by adding a substrate solution consisting of o-phenylenediamine dihydrochloride (40 mg/100 ml in citrate phosphate buffer, pH 4.5), 0.1% cetrimethyl ammonium bromide, and 3-amino-1,2,4 triazole (1 mM). The absorbance was read at 490 nm using an automated microplate reader (Model 680, Bio-Rad, USA).

[3] = system: human umbilical vein endothelial cell (HUVEC); test: Cell viability (MTT) assay on endothelial cells; type: cell-based; details: Concentration of compounds where >95% cells are viable
Description: as §1
The cytotoxicity of these compounds was analyzed by colorimetric MTT (methylthiazolydiphenyl-tetrazolium bromide, Sigma, USA) assay as described (Kumar S et al, 2005). Briefly, endothelial cells were treated with DMSO alone (0.25%, as vehicle) or with different concentrations of compounds for 24 hrs. Four hrs before the end of incubation, medium was removed and 100 μl MTT (5 mg/ml in serum free medium) was added to each well. The MTT was removed after 4 hrs, cells were washed out with PBS (phosphate buffered saline, pH 7.4), and 100 μl DMSO was added to each well to dissolve water insoluble MTT-formazan crystals. Absorbance was recorded at 570 nm in an ELISA reader (Bio-Rad, Model 680, USA). All experiments were performed at least 3 times in triplicate wells.

acute lung Injury model = details: literature reference; cited from earlier work
[4] = system: LPS induced acute lung injury; test: LPS aerosol induced acute lung injury model in mice (BALF cell counts, lung injury score); type: in vivo; details: for Neutrophil count in the BALF / neutrophil influx in the lungs / Lung injury score / LPS-induced lung injury: post-treatment i.p. 0.1, 1.0 and 10 mg/kg; for Neutrophil count in the BALF / neutrophil influx in the lungs: FIG. 2B; for Lung injury score / LPS-induced lung injury: FIG. 3
Description: BALB/c male mice 10 weeks old were randomly divided into 5 groups with 6 mice in each group.
Group 1: saline challenged/vehicle (0.25% CMC) treated
Group 2: LPS challenged/vehicle treated
Group 3: LPS challenged/RS—Z (0.1 mg/kg in 0.25% CMC) treated
Group 4: LPS challenged/RS—Z (1 mg/kg in 0.25% CMC) treated
Group 5: LPS challenged/RS—Z (10 mg/kg in 0.25% CMC) treated
Mice in Groups 2, 3, 4 and 5 were challenged with an aerosol of LPS (E. coli strain 026:B6) at a concentration of 300 μg/ml in normal saline for 30 minutes. Mice were placed in a Plexiglas chamber (20×20×10 cm^3) and exposed to an aerosol generated from a nebulizer (Omtron model, USA) with an airflow rate of 9 L/min. Group 1(Control) mice were challenged with saline alone.
Mice were treated with either vehicle or RS—Z thirty minutes after the LPS challenge. Mice in group 1 (control) and Group 2 (LPS challenged) were vehicle (0.25% CMC) treated intraperitoneally (i.p.). Mice in Group 3 were treated with RS—Z at a dose of 0.1 mg/kg body weight by i.p. injection. Mice in Group 4 were treated with RS—Z at a dose of 1.0 mg/kg body weight by i.p. injection. Group 5 were treated with RS—Z at a dose of 10 mg/kg body weight by i.p. injection.
Mice were sacrificed three hrs after the LPS challenge using an overdose of sodium pentothal (100 mg/kg, i.p.). The trachea were cannulated and 0.5 ml of PBS (phosphate buffered saline) was used for lavage at a time and this step was repeated three times. About 1.5 ml of BAL fluid was recovered per mouse. The BAL fluid was centrifuged (400×g, 4° C., 6 min) and the supernatant was kept at −70° C. until analyzed for biochemical parameters. The BAL cells were washed three times with PBS and the pellet was resuspended in 200 μl cold PBS. For total cell counts, BAL cell suspension was diluted 1:20 in PBS and cells were counted in a hemocytometer. For differential counts, BALF cell suspension smear was made on glass slides followed by Leishman's stain. The cells were identified and counted by standard methodology. At least 300 cell (all types) per slide were counted and the percentage of neutrophils was calculated.
The excised lung portions from all the groups was fixed in 10% Buffered formalin. The fixed tissue was embedded in paraffin, sectioned into 4 μm and stained with haematoxylin-eosin for observation under the light microscope. The injury was scored with a semi-quantitative grading system based on the structure changes edema, alveolar and interstitial hemorrhage and inflammatory cells sequestration (Matthay M A, Zimmerman G A, Esmon C, Bhattacharya J, Caller B, et al. (2003) Future research directions in acute lung injury: Summary of a National Heart, Lung, and Blood Institute working group. Am J Respir Crit. Care Med 167: 1027-1035). Semi-quantitative grading system was a 0-to-4 point grading system: 0=No injury, 1=25% injury in a light microscope field, 2=50% injury in a light microscope field, 3=75% injury in a light microscope field, 4= almost 100% injury in a light microscope field. Five light microscopic fields were analyzed for a particular pathological specimen to determine mice lung injury score.

[5] = reference compound, value in mM
[6] = vs. LPS aerosol/vehicle IP, listed as formula 1a

CCCOC(=O)CCCC(Sc1ccccn1)C(=O)OC (stereo not drawn) [AD-20, 2-(2-pyridylthio)-hexanedioic acid 1-methyl ester 6-propyl ester]
IC50 [1]: 0.178 ± 0.00081 mM
Neutrophil Adhesion Inhibition IC50 [2]: not significant
Max. tolerable dose ([3]; 24 hrs, MTT): 0.25 mM

COC(=O)C(CCCC(=O)OC1CCCCC1)Sc1ccccn1 (stereo not drawn) [AD-21, 2-(2-pyridylthio)-hexanedioic acid 6-cyclohexyl ester 1-methyl ester]
IC50 [1]: 0.117 ± 0.00092 mM
Neutrophil Adhesion Inhibition IC50 [2]: not significant
Max. tolerable dose ([3]; 24 hrs, MTT): 0.25 mM

CCOC(=O)CCCCCCCC(Sc1ccccn1)C(=O)OC (stereo not drawn) [AD-32, 2-(2-pyridylthio)-decanedioic acid-10-ethyl ester 1-methyl ester]
IC50 [1]: 0.1 ± 0.00096 mM
Neutrophil Adhesion Inhibition IC50 [2]: not significant
Max. tolerable dose ([3]; 24 hrs, MTT): 0.25 mM

CCCCCOC(=O)CCCC(Sc1ccccn1)C(=O)OC (stereo not drawn) [AD—Z, 2-(2-pyridylthio)-hexanedioic acid-1-methyl ester 6-pentyl ester]
IC50 [1]: 0.085 ± 0.00152 mM
Neutrophil Adhesion Inhibition IC50 [2]: not significant
Max. tolerable dose ([3]; 24 hrs, MTT): 0.25 mM

CC(=O)N[C@@H](CS)C(=O)O [NAC, N-acetyl cysteine, reference compound]
IC50 [1, 5]: 6.68 mM
Neutrophil Adhesion Inhibition IC50 [2]: not significant
Max. tolerable dose [3, 5]: 20 mM
Efficacious Dose (acute lung Injury model): 150 mg/kg

CCCCOC(=O)CCSc1ccccn1 [RS-20, 3-(2-pyridylthio)propionic acid butyl ester]
IC50 [1]: 0.079 ± 0.00073 mM
IC50 [2]: 85 ± 0.94 µM
Max. tolerable dose ([3]; 24 hrs, MTT): 0.5 mM

O=C(CCSc1ccccn1)OC1CCCCC1 [RS-21, 3-(2-pyridylthio)propionic acid cyclohexyl ester]
IC50 [1]: 0.135 ± 0.00082 mM
Neutrophil Adhesion Inhibition IC50 [2]: not significant
Max. tolerable dose ([3]; 24 hrs, MTT): 0.25 mM

CCOC(=O)CCCCCCSc1ccccn1 [RS-32, 7-(2-pyridylthio)heptanoic acid ethyl ester]
IC50 [1]: 0.097 ± 0.00063 mM
IC50 [2]: 94 ± 0.92 µM
Max. tolerable dose ([3]; 24 hrs, MTT): 0.5 mM

CCCCCOC(=O)CCSc1ccccn1 [RS—Z, 3-(2-pyridylthio)propionic acid pentyl ester]
IC50 [1]: 0.05 mM
IC50 [2]: 61 µM
Max. tolerable dose ([3]; 24 hrs, MTT): 0.5 mM
Lung injury caused by bacterial polysaccharide challenge ([4]; 10 mg/kg body weight): significantly reduced
Pulmonary neutrophil infiltration ([4]; 10 mg/kg body weight intraperitoneally): significantly alleviate
Efficacious Dose ([4]; acute lung injury model, mice, i.p.): 10 mg/kg
Total cell counts in the BALF ([4]; post-treatment IP 0.1, 1, 10 mg/kg, vs. LPS aerosol/vehicle IP, FIG. 2A): dose-dependently reduced
Neutrophil count in the BALF / neutrophil influx in the lungs ([4]; vs. LPS aerosol/vehicle IP): reduction of the neutrophil influx; also recorded: dose-dependently reduced
Neutrophil count in the BALF / neutrophil influx in the lungs [4, 6]: Reduction of the neutrophil influx
Lung injury score / LPS-induced lung injury ([4]; vs. LPS aerosol/vehicle IP): attenuation of the LPS-induced lung injury; also recorded: dose-dependently reduced
Lung injury score / LPS-induced lung injury [4, 6]: Attenuation of the LPS-induced lung injury

COc1ccc(C2CNC(=O)C2)cc1OC1CCCC1 (stereo not drawn) [Rolipram]
Efficacious Dose (acute lung Injury model): 5 mg/kg

O=C1CCC(N2C(=O)c3ccccc3C2=O)C(=O)N1 (stereo not drawn) [Thalidomide, α-N-phthalimidoglutarimide]
Efficacious Dose (acute lung Injury model): 100 mg/kg

Cc1c(C)c2c(c(C)c1O)CCC(C)(C[C@H]1O[C@H](CO)[C@@H](O)[C@H](O)[C@H]1O)O2 (stereo partly drawn) [Water-soluble Vitamin E derivative, (α-D-glucopyranosyl)methyl-2,5,7,8-(tetramethyl)chroman-6-ol]
Efficacious Dose (acute lung Injury model): 10 mg/kg
